Measured values reported in article PMC10537105, “Derivatives Incorporating Acridine, Pyrrole, and Thiazolidine Rings as Promising Antitumor Agents” (Molecules, 2023).
Read-outs that look alike come from different tables or passages of the source.

Legend:
[1] = tested on: HeLa; test: MTT assay, HeLa cells; format: cell-based, human; details: 72 h of incubation, read-out: IC50 values ± SD, HeLa
Text: (§1) The impact of acridine spiro derivatives 6–10 (Figure 13) on the metabolic activity of various tumor cell lines HCT-116 (human colorectal carcinoma), Jurkat (human leukemia cells), HeLa (human cervical adenocarcinoma), MDA-MB-231, and MCF-7 (human breast adenocarcinoma), and normal cell lines COS-7 (monkey kidney cells) and BJ-5ta (skin fibroblasts) was investigated using the MTT assay. This assay measures the conversion of yellow 3-(4,5-dimethylthiazol-2-yl)-2,5-diphenyltetrazolium bromide (MTT) to insoluble purple formazan by metabolically active cells. The antiproliferative activities of the tested compounds were determined based on the results from the MTT assay, and the inhibitory concentration values (IC50) are presented in Table 5.
(§2) The human cancer cell lines employed in this study were sourced from reputable institutions, including the American Type Culture Collection (ATCC; Manassas, VA, USA) and the European Collection of Authenticated Cell Cultures (ECACC, Salisbury, UK). Specifically, HeLa (93021013, human cervical adenocarcinoma), HCT116 (CCL-247TM, human colorectal carcinoma), and Jurkat (88042803, human leukemic T-cell lymphoma) were cultured in RPMI 1640 medium (Biosera, Kansas City, MO, USA). In contrast, MCF-7 (HTB-22TM, human breast adenocarcinoma, ER+), MDA-MB-231 (HTB-26TM, human breast adenocarcinoma, ER−), and COS-7 (CRL-1651TM, kidney fibroblasts) were nurtured in high-glucose Dulbecco’s Modified Eagle Medium (DMEM) supplemented with sodium pyruvate (Biosera). Furthermore, BJ-5ta (CRL-4001TM, human dermal fibroblasts) was cultured in a composite medium of high-glucose DMEM and M199 (4:1) (Biosera), supplemented with Hygromycin B (0.01 mg/mL; Merck, Darmstadt, Germany). All culture media were enriched with a 10% fetal bovine serum (FBS; Gibco, Thermo Scientific, Rockford, IL, USA) and an antibiotic/antimycotic solution (Merck) to ensure optimal growth conditions. The cells were meticulously maintained within a humidified environment containing 5% CO2 at 37 °C. Regular screenings for mycoplasma contamination were conducted using Hoechst 33342 staining (Merck), confirming the integrity of the cell lines.
(§3) To assess the antiproliferative impact of the synthesized compounds 6–10, their half-maximal inhibitory concentration (IC50) and the MTT colorimetric assay were employed. MDA-MB-231 and MCF-7 cells were seeded into 96-well microplates (SARSTEDT, Nümbrecht, Germany) at a density of 5 × 10^3 cells per well. After 24 h of cell seeding, various concentrations (100, 50, and 10 µmol/L) of acridine derivatives 6–10 were introduced, alongside cisplatin (utilized as a reference) at concentrations of 5, 10, 20, 50, and 100 µmol/L. Subsequent to 24, 48, and 72 h of treatment, the cells in each well underwent incubation with MTT (5 mg/mL, Sigma-Aldrich Chemie, Steinheim, Germany) for 4 h at 37 °C in the dark. During this period, mitochondrial oxidoreductases metabolized MTT, forming insoluble formazan. Following this, 100 µL of SDS (10% […]) was added to dissolve the formazan crystals, and the cells were incubated for an additional 12 h. Absorbance at 540 nm was measured using the automated Cytation™ 3 Cell Imaging Multi-Mode Reader (Biotek, Winooski, VT, USA). Each test was performed in triplicate, and three independent experiments were conducted to ensure precision and reliability.

[2] = tested on: MDA-MB-231; test: MTT assay, MDA-MB-231 cells; format: cell-based, human; details: read-out: IC50 values ± SD, MDA-MB-231
Text: as §1, §2, §3

[3] = tested on: BJ-5ta; test: MTT assay, BJ-5ta normal fibroblasts; format: cell-based, human; details: 72 h of incubation, normal cell line, read-out: IC50 values ± SD, BJ-5ta
Text: as §1, §2, §3

[4] = tested on: Jurkat; test: MTT assay, Jurkat cells; format: cell-based, human; details: MTT, 72 h of incubation, read-out: IC50 values ± SD, Jurkat
Text: as §1, §2, §3

[5] = tested on: COS-7; test: MTT assay, COS-7 normal cells; format: cell-based, monkey; details: normal cell line, read-out: IC50 values ± SD, COS-7
Text: as §1, §2, §3

[6] = tested on: HCT-116; test: MTT assay, HCT-116 cells; format: cell-based, human; details: MTT, 72 h of incubation, read-out: IC50 values ± SD, HCT-116
Text: as §1, §2, §3

[7] = tested on: MCF-7; test: MTT assay, MCF-7 cells; format: cell-based, human; details: read-out: IC50 values ± SD, MCF-7
Text: as §1, §2, §3

[8] = Homo sapiens, MDA-MB-231, 72 h of incubation
[9] = Primates, COS-7, 72 h of incubation
[10] = Homo sapiens, MCF7, 72 h of incubation

SMILES	IC50 ([1]; Homo sapiens, HeLa) [µM]	IC50 [2, 8] [µM]	IC50 ([3]; Homo sapiens, Fibroblast) [µM]	IC50 ([4]; Homo sapiens, Jurkat) [µM]	IC50 [5, 9] [µM]	IC50 ([6]; Homo sapiens, HCT-116) [µM]	IC50 [7, 10] [µM]	melting point	IC50 [1] [µM]	IC50 ([2]; 72 h of incubation) [µM]	IC50 [3] [µM]	IC50 [4] [µM]	IC50 ([5]; 72 h of incubation) [µM]	IC50 [6] [µM]	IC50 ([7]; 72 h of incubation) [µM]
CCOC(=O)/C=C1\S/C(=N\N2C(=O)C(C#N)=CC23c2ccccc2Nc2ccccc23)N(c2ccc(OC)cc2)C1=O [8b, Ethyl 2-[(2Z,5Z)-2-({4′-cyano-5′-oxo-1′,5′-dihydro-10H-spiro[acridine-9,2′-pyrrol]-1′-yl}imino)-3-(4-methoxyphenyl)-4-oxo-1,3-thiazolidin-5-ylidene]acetate]	16.9 ± 3.5	7.43 ± 0.72	6.82 ± 0.24	5.67 ± 0.03	11.5 ± 1.74	5.37 ± 0.01	12.8 ± 4.24	–	–	–	–	–	–	–	–
COc1cccc(N2C(=O)C(C)S/C2=N\N2C(=O)C(C#N)=CC23c2ccccc2Nc2ccccc23)c1 (centres unmarked) [9c, 1′-{[(2Z)-3-(3-Methoxyphenyl)-5-methyl-4-oxo-1,3-thiazolidin-2-ylidene]amino}-5′-oxo-1′,5′-dihydro-10H-spiro[acridine-9,2′-pyrrole]-4′-carbonitrile]	44 ± 5.88	40.8 ± 0.84	32.7 ± 0.47	25.8 ± 2.58	> 100	32.7 ± 1.51	65.3 ± 1.89	237 to 240 °C (dec.)	–	–	–	–	–	–	–
COc1ccc(NC(=S)NN2C(=O)C(C#N)=CC23c2ccccc2Nc2ccccc23)cc1 [6b, 3-{4′-Cyano-5′-oxo-1′,5′-dihydro-10H-spiro[acridine-9,2′-pyrrol]-1′-yl}-1-(4-methoxyphenyl)thiourea]	> 100	> 100	> 100	39.9 ± 5.19	> 100	41.5 ± 4.77	> 100	–	–	–	–	–	–	–	–
N#CC1=CC2(c3ccccc3Nc3ccccc32)N(/N=C2\SCC(=O)N2c2ccc([N+](=O)[O-])cc2)C1=O [7e, 1′-{[(2Z)-3-(4-Nitrophenyl)-4-oxo-1,3-thiazolidin-2-ylidene]amino}-5′-oxo-1′,5′-dihydro-10H-spiro[acridine-9,2′-pyrrole]-4′-carbonitrile]	> 100	> 100	> 100	35.5 ± 2.31	> 100	46.2 ± 2.02	> 100	244 to 247 °C (dec.)	–	–	–	–	–	–	–
CCOC(=O)/C=C1\S/C(=N\N2C(=O)C(C#N)=CC23c2ccccc2Nc2ccccc23)N(c2ccc([N+](=O)[O-])cc2)C1=O [8e, Ethyl 2-[(2Z,5Z)-2-({4′-cyano-5′-oxo-1′,5′-dihydro-10H-spiro[acridine-9,2′-pyrrol]-1′-yl}imino)-3-(4-nitrophenyl)-4-oxo-1,3-thiazolidin-5-ylidene]acetate]	6.5 ± 0.43	8 ± 1.32	7.07 ± 0.26	5.6 ± 0.04	10.2 ± 0.5	5.45 ± 0.01	9.48 ± 0.27	183 to 186 °C (dec.)	–	–	–	–	–	–	–
COc1ccc(N2C(=O)C(C)S/C2=N\N2C(=O)C(C#N)=CC23c2ccccc2Nc2ccccc23)cc1 (centres unmarked) [9b, 1′-{[(2Z)-3-(4-Methoxyphenyl)-5-methyl-4-oxo-1,3-thiazolidin-2-ylidene]amino}-5′-oxo-1′,5′-dihydro-10H-spiro[acridine-9,2′-pyrrole]-4′-carbonitrile]	> 100	> 100	> 100	> 100	> 100	> 100	> 100	219 to 224 °C (dec.)	–	–	–	–	–	–	–
N#CC1=CC2(c3ccccc3Nc3ccccc32)N(/N=C2\SCC(=O)N2c2ccc(F)cc2)C1=O [7d, 1′-{[(2Z)-3-(4-Fluorophenyl)-4-oxo-1,3-thiazolidin-2-ylidene]amino}-5′-oxo-1′,5′-dihydro-10H-spiro[acridine-9,2′-pyrrole]-4′-carbonitrile]	62.5 ± 14	> 100	> 100	> 100	> 100	46.6 ± 2.66	32.5 ± 6.5	249 to 252 °C (dec.)	–	–	–	–	–	–	–
CC1S/C(=N\N2C(=O)C(C#N)=CC23c2ccccc2Nc2ccccc23)N(c2ccccc2)C1=O (centres unmarked) [9a, 1′-{[(2Z)-5-Methyl-4-oxo-3-phenyl-1,3-thiazolidin-2-ylidene]amino}-5′-oxo-1′,5′-dihydro-10H-spiro[acridine-9,2′-pyrrole]-4′-carbonitrile]	> 100	> 100	> 100	> 100	> 100	> 100	> 100	245 to 249 °C (dec.)	–	–	–	–	–	–	–
CCCC1S/C(=N\N2C(=O)C(C#N)=CC23c2ccccc2Nc2ccccc23)N(c2cccc(OC)c2)C1=O (centres unmarked) [10c, 1′-{[(2Z)-3-(3-Methoxyphenyl)-4-oxo-5-propyl-1,3-thiazolidin-2-ylidene]amino}-5′-oxo-1′,5′-dihydro-10H-spiro[acridine-9,2′-pyrrole]-4′-carbonitrile]	> 100	> 100	> 100	> 100	> 100	> 100	> 100	229 to 231 °C (dec.)	–	–	–	–	–	–	–
CCCC1S/C(=N\N2C(=O)C(C#N)=CC23c2ccccc2Nc2ccccc23)N(c2ccc([N+](=O)[O-])cc2)C1=O (centres unmarked) [10e, 1′-{[(2Z)-3-(4-Nitrophenyl)-4-oxo-5-propyl-1,3-thiazolidin-2-ylidene]amino}-5′-oxo-1′,5′-dihydro-10H-spiro[acridine-9,2′-pyrrole]-4′-carbonitrile]	> 100	> 100	> 100	> 100	> 100	> 100	91.3 ± 3.74	249 to 251 °C (dec.)	–	–	–	–	–	–	–
N.N.[Cl][Pt][Cl] [Cisplatin, cisplatin, reference compound]	–	–	–	–	–	–	–	–	35.4 ± 2.5	7.1 ± 0.9	36 ± 1.87	8.18 ± 1.6	24.6 ± 1.4	12.4 ± 2.1	26.5 ± 3.19
CC1S/C(=N\N2C(=O)C(C#N)=CC23c2ccccc2Nc2ccccc23)N(c2ccc([N+](=O)[O-])cc2)C1=O (centres unmarked) [9e, 1′-{[(2Z)-5-Methyl-3-(4-nitrophenyl)-4-oxo-1,3-thiazolidin-2-ylidene]amino}-5′-oxo-1′,5′-dihydro-10H-spiro[acridine-9,2′-pyrrole]-4′-carbonitrile]	> 100	> 100	> 100	34.4 ± 2.13	> 100	> 100	> 100	170 to 173 °C (dec.)	–	–	–	–	–	–	–
COc1ccc(N2C(=O)CS/C2=N\N2C(=O)C(C#N)=CC23c2ccccc2Nc2ccccc23)cc1 [7b, 1′-{[(2Z)-3-(4-Methoxyphenyl)-4-oxo-1,3-thiazolidin-2-ylidene]amino}-5′-oxo-1′,5′-dihydro-10H-spiro[acridine-9,2′-pyrrole]-4′-carbonitrile]	> 100	> 100	> 100	> 100	> 100	> 100	30.8 ± 5.22	207 to 210 °C (dec.)	–	–	–	–	–	–	–
